Source: ChEMBL document CHEMBL4304811, “Development of a Water-Soluble Indolylmaleimide Derivative IM-93 Showing Dual Inhibition of Ferroptosis and NETosis” (ACS Med Chem Lett, 2019)

How the values were obtained:
[1] = molecular target: NT-3 growth factor receptor (Homo sapiens) (UniProt Q16288); test: Binding affinity to wild-type human partial length TRKC (Q531 to G825 residues) expressed in mammalian expression system assessed as residual binding level at 10 uM by Kinomescan method relative to control
[2] = molecular target: Muscle, skeletal receptor tyrosine-protein kinase (Homo sapiens) (UniProt O15146); test: Binding affinity to wild-type human partial length MUSK (M553 to V869 residues) expressed in bacterial expression system assessed as residual binding level at 10 uM by Kinomescan method relative to control
[3] = molecular target: Calcium/calmodulin-dependent protein kinase type II subunit delta (Homo sapiens) (UniProt Q13557); test: Binding affinity to wild-type human partial length CAMK2D (M1 to E329 residues) expressed in bacterial expression system assessed as residual binding level at 10 uM by Kinomescan method relative to control
[4] = system: Phosphatidylinositol 4,5-bisphosphate 3-kinase catalytic subunit alpha isoform (Homo sapiens), P42336 [C420R]; test: Binding affinity to human partial length PIK3CA C420R mutant (R108 to N1068 residues) expressed in mammalian expression system assessed as residual binding level at 10 uM by Kinomescan method relative to control
[5] = molecular target: Serine/threonine-protein kinase TAO2 (Homo sapiens) (UniProt Q9UL54); test: Binding affinity to wild-type human partial length TAOK2 (M1 to A320 residues) expressed in mammalian expression system assessed as residual binding level at 10 uM by Kinomescan method relative to control
[6] = molecular target: Serine/threonine-protein kinase Nek3 (Homo sapiens) (UniProt P51956); test: Binding affinity to wild-type human full length NEK3 (M1 to R506 residues) expressed in mammalian expression system assessed as residual binding level at 10 uM by Kinomescan method relative to control
[7] = molecular target: Hepatocyte growth factor receptor (Homo sapiens) (UniProt P08581); test: Binding affinity to wild-type human partial length MET (D1010 to S1367 residues) expressed in bacterial expression system assessed as residual binding level at 10 uM by Kinomescan method relative to control
[8] = system: ALK tyrosine kinase receptor (Homo sapiens), Q9UM73 [C1156Y]; test: Binding affinity to […] human partial length ALK C1156Y mutant (I1088 to E1409 residues) expressed in mammalian expression system assessed as residual binding level at 10 uM by Kinomescan method relative to control
[9] = molecular target: Serine/threonine-protein kinase MARK1 (Homo sapiens) (UniProt Q9P0L2); test: Binding affinity to wild-type human partial length MARK1 (Q30 to T341 residues) expressed in bacterial expression system assessed as residual binding level at 10 uM by Kinomescan method relative to control
[10] = molecular target: Protein-tyrosine kinase 6 (Homo sapiens) (UniProt Q13882); test: Binding affinity to wild-type human partial length BRK (L166 to T451 residues) expressed in bacterial expression system assessed as residual binding level at 10 uM by Kinomescan method relative to control
[11] = molecular target: Inhibitor of nuclear factor kappa-B kinase subunit beta (Homo sapiens) (UniProt O14920); test: Binding affinity to wild-type human full length IKK-beta (M1 to S756 residues) expressed in mammalian expression system assessed as residual binding level at 10 uM by Kinomescan method relative to control
[12] = system: Tyrosine-protein kinase ABL1 (Homo sapiens), P00519 [F317I]; test: Binding affinity to human phosphorylated ABL1 F317I mutant (S229 to K512 residues) expressed in mammalian expression system assessed as residual binding level at 10 uM by Kinomescan method relative to control
[13] = molecular target: Mitogen-activated protein kinase kinase kinase 19 (Homo sapiens) (UniProt Q56UN5); test: Binding affinity to wild-type human partial length YSK4 (T1019 to H1328 residues) expressed in mammalian expression system assessed as residual binding level at 10 uM by Kinomescan method relative to control
[14] = molecular target: Cyclin-dependent kinase 18 (Homo sapiens) (UniProt Q07002); test: Binding affinity to wild-type human full length PCTK3 (M3 to F474 residues) expressed in bacterial expression system assessed as residual binding level at 10 uM by Kinomescan method relative to control
[15] = molecular target: Tyrosine-protein kinase Fgr (Homo sapiens) (UniProt P09769); test: Binding affinity to wild-type human partial length FGR (L233 to T529 residues) expressed in bacterial expression system assessed as residual binding level at 10 uM by Kinomescan method relative to control
[16] = molecular target: Dual specificity mitogen-activated protein kinase kinase 7 (Homo sapiens) (UniProt O14733); test: Binding affinity to wild-type human full length MKK7 (M1 to R419 residues) expressed in mammalian expression system assessed as residual binding level at 10 uM by Kinomescan method relative to control
[17] = molecular target: Mitogen-activated protein kinase 10 (Homo sapiens) (UniProt P53779); test: Binding affinity to wild-type human partial length JNK3 (V28 to Q422 residues) expressed in mammalian expression system assessed as residual binding level at 10 uM by Kinomescan method relative to control
[18] = molecular target: Receptor tyrosine-protein kinase erbB-3 (Homo sapiens) (UniProt P21860); test: Binding affinity to wild-type human partial length ERBB3 (G684 to A987 residues) expressed in mammalian expression system assessed as residual binding level at 10 uM by Kinomescan method relative to control
[19] = molecular target: Dual serine/threonine and tyrosine protein kinase (Homo sapiens) (UniProt Q6XUX3); test: Binding affinity to wild-type human full length RIPK5 (M1 to T929 residues) expressed in mammalian expression system assessed as residual binding level at 10 uM by Kinomescan method relative to control
[20] = molecular target: Uncharacterized serine/threonine-protein kinase SBK3 (Homo sapiens) (UniProt P0C264); test: Binding affinity to wild-type human partial length SgK110 (L22 to R329 residues) expressed in bacterial expression system assessed as residual binding level at 10 uM by Kinomescan method relative to control
[21] = molecular target: Serine/threonine-protein kinase pim-1 (Homo sapiens) (UniProt P11309); test: Binding affinity to wild-type human partial length PIM1 (A15 to K313 residues) expressed in bacterial expression system assessed as residual binding level at 10 uM by Kinomescan method relative to control
[22] = molecular target: Ankyrin repeat and protein kinase domain-containing protein 1 (Homo sapiens) (UniProt Q8NFD2); test: Binding affinity to wild-type human partial length ANKK1 (M1 to A305 residues) expressed in mammalian expression system assessed as residual binding level at 10 uM by Kinomescan method relative to control
[23] = molecular target: Tyrosine-protein kinase Lyn (Homo sapiens) (UniProt P07948); test: Binding affinity to wild-type human partial length LYN (C219 to Q511 residues) expressed in bacterial expression system assessed as residual binding level at 10 uM by Kinomescan method relative to control
[24] = molecular target: Phosphatidylinositol 4-phosphate 5-kinase type-1 alpha (Homo sapiens) (UniProt Q99755); test: Binding affinity to wild-type human full length PIP5K1A (M1 to H562 residues) expressed in bacterial expression system assessed as residual binding level at 10 uM by Kinomescan method relative to control

Compound: CC(C)N1C(=O)C(NCCCN(C)C)=C(c2cn(C)c3ccccc23)C1=O.Cl
- Activity [1]: 100%
- Activity [2]: 100%
- Activity [3]: 98%
- Activity [4]: 75%
- Activity [5]: 94%
- Activity [6]: 94%
- Activity [7]: 97%
- Activity [8]: 90%
- Activity [9]: 67%
- Activity [10]: 100%
- Activity [11]: 83%
- Activity [12]: 87%
- Activity [13]: 96%
- Activity [14]: 99%
- Activity [15]: 82%
- Activity [16]: 88%
- Activity [17]: 85%
- Activity [18]: 93%
- Activity [19]: 100%
- Activity [20]: 98%
- Activity [21]: 100%
- Activity [22]: 90%
- Activity [23]: 98%
- Activity [24]: 96%
